Assay results: the supplement of paper PMC5908809

How the values were obtained:
[1] = system: normal NK cells expanded with K562-aAPC; assay: percent inhibition of viability; higher = more inhibition; conditions: 72 h, IL-2 2.5 ng/mL
Protocol: (§1)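 Drug sensitivity and resistance testing on K562-aAPC-expanded normal NK cells: 5 concentrations (10-fold steps over a 10,000-fold range), 72 h at 37 °C, viability by CellTiter-Glo normalised to DMSO and benzethonium chloride controls; DSS from the fitted curve.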

[2] = system: DERL-7 (IL-2 2.5 ng/mL); assay: as above; conditions: 72 h
[3] = system: IMC-1 (IL-2 20 ng/mL); assay: as above; conditions: 72 h
[4] = system: KAI3 (IL-2 2.5 ng/mL); assay: as above; conditions: 72 h
[5] = system: KHYG-1 (IL-2 2.5 ng/mL); assay: as above; conditions: 72 h
[6] = system: NK-92 (IL-2 2.5 ng/mL); assay: as above; conditions: 72 h
[7] = system: NK-YS (IL-2 2.5 ng/mL); assay: as above; conditions: 72 h
[8] = system: NKL (IL-2 2.5 ng/mL); assay: as above; conditions: 72 h
[9] = system: SNK-6 (IL-2 2.5 ng/mL); assay: as above; conditions: 72 h
[10] = system: YT (IL-2 2.5 ng/mL); assay: as above; conditions: 72 h
[11] = system: normal primary NK cells, pool 1 (3 donors) (IL-2 2.5 ng/mL); assay: as above; conditions: 72 h
[12] = system: normal primary NK cells, pool 1 (3 donors), resting (IL-2 0 ng/mL); assay: as above; conditions: 72 h
[13] = system: normal primary NK cells, pool 2 (3 donors) (IL-2 2.5 ng/mL); assay: as above; conditions: 72 h
[14] = system: normal primary NK cells, pool 3 (3 donors) (IL-2 2.5 ng/mL); assay: as above; conditions: 72 h
[15] = system: normal NK cells expanded with K562-aAPC; assay: drug sensitivity score (DSS) (DSS units); higher = more sensitive; extreme values may be limits of the assay; conditions: 72 h; IL-2 2.5 ng/mL
Protocol: as §1

[16] = system: DERL-7 (IL-2 2.5 ng/mL); assay: as above; conditions: 72 h
[17] = system: IMC-1 (IL-2 20 ng/mL); assay: as above; conditions: 72 h
[18] = system: KAI3 (IL-2 2.5 ng/mL); assay: as above; conditions: 72 h
[19] = system: KHYG-1 (IL-2 2.5 ng/mL); assay: as above; conditions: 72 h
[20] = system: NK-92 (IL-2 2.5 ng/mL); assay: as above; conditions: 72 h
[21] = system: NK-YS (IL-2 2.5 ng/mL); assay: as above; conditions: 72 h
[22] = system: NKL (IL-2 2.5 ng/mL); assay: as above; conditions: 72 h
[23] = system: SNK-6 (IL-2 2.5 ng/mL); assay: as above; conditions: 72 h
[24] = system: YT (IL-2 2.5 ng/mL); assay: as above; conditions: 72 h
[25] = system: normal primary NK cells, pool 1 (3 donors) (IL-2 2.5 ng/mL); assay: as above; conditions: 72 h
[26] = system: normal primary NK cells, pool 1 (3 donors), resting (IL-2 0 ng/mL); assay: as above; conditions: 72 h
[27] = system: normal primary NK cells, pool 2 (3 donors) (IL-2 2.5 ng/mL); assay: as above; conditions: 72 h
[28] = system: normal primary NK cells, pool 3 (3 donors) (IL-2 2.5 ng/mL); assay: as above; conditions: 72 h

CCCS(=O)(=O)Nc1ccc(F)c(C(=O)c2c[nH]c3ncc(-c4ccc(Cl)cc4)cc23)c1F [Vemurafenib] (max concentration tested 10000 nM)
percent inhibition of viability [%]
Conditions | 1 nM | 10 nM | 100 nM | 1000 nM | 10000 nM
[1] | -5.54 | -6.29 | -9.37 | -4.54 | 5.8
[2] | 3.23 | 0.38 | 4.34 | 15.4 | 79.5
[3] | -6.37 | -7.47 | -1.05 | -3.36 | 37.8
[4] | -2.25 | -4.57 | -1.04 | 12.3 | 75.2
[5] | 1.21 | -7.43 | 3.43 | 42.5 | 105
[6] | -0.79 | 1.62 | 12 | 22.6 | 89.5
[7] | -2.8 | -10.1 | -3.62 | 0.91 | 77.1
[8] | -13.6 | -17.7 | -12.3 | 12.2 | 73.1
[9] | -12.9 | -2.01 | -17 | -0.04 | 92.6
[10] | 1.23 | -1.61 | 4.12 | 16.2 | 98.7
[11] | -3.98 | -7.14 | 1.09 | 0.31 | -3.81
[12] | 3.45 | -3.02 | 6.61 | 23.4 | 23.8
[13] | -1.54 | -1.23 | 6.03 | 0.86 | 9.89
[14] | 0.76 | -2.71 | 6.1 | 0.26 | 0.17

Conditions | drug sensitivity score
[15] | 0
[16] | 6.92
[17] | 1.59
[18] | 6.2
[19] | 11.1
[20] | 8.16
[21] | 4.38
[22] | 6.06
[23] | 5.17
[24] | 8.15
[25] | 0
[26] | 4.54
[27] | 0
[28] | 0

C=CCc1cccc(/C=N/NC(=O)CN2CCN(Cc3ccccc3)CC2)c1O [PAC-1] (max concentration tested 10000 nM)
percent inhibition of viability [%]
Conditions | 1 nM | 10 nM | 100 nM | 1000 nM | 10000 nM
[1] | -3.35 | 4.92 | 2.56 | 20.9 | 96.8
[2] | -1.36 | 2.12 | -2.94 | 12.2 | 80.9
[3] | -3.49 | -2.97 | 1.56 | 1.88 | 100
[4] | -5.72 | -3.85 | 4.89 | 62.6 | 96.5
[5] | -1.19 | -1.29 | 5.59 | 74.1 | 104
[6] | -11.7 | -11 | 17.2 | 50.3 | 103
[7] | -1.58 | -1.32 | 5.2 | 5.35 | 97.7
[8] | -9.29 | 8.69 | 4.48 | 69.2 | 97.8
[9] | 10.2 | 3.22 | 2.33 | 48.9 | 97.7
[10] | -0.7 | -1.17 | 5.18 | 22.7 | 99
[11] | -3.78 | -2.13 | -1.5 | 3.37 | 92.1
[12] | -5.08 | -13.3 | -0.24 | -2.95 | 89.9
[13] | -14.6 | -2.22 | 5.41 | 12 | 86.3
[14] | -13.1 | -3.83 | 0.14 | 15.8 | 96

Conditions | drug sensitivity score
[15] | 8.67
[16] | 6.53
[17] | 5.83
[18] | 13
[19] | 14.7
[20] | 12
[21] | 6.2
[22] | 13.9
[23] | 11.3
[24] | 9.03
[25] | 5.57
[26] | 4.76
[27] | 6.79
[28] | 7.93

C[C@@H](Oc1cc(-n2cnc3ccc(CN4CCN(C)CC4)cc32)sc1C(N)=O)c1ccccc1C(F)(F)F (max concentration tested 10000 nM)
percent inhibition of viability [%]
Conditions | 1 nM | 10 nM | 100 nM | 1000 nM | 10000 nM
[1] | -4.93 | 10.2 | 55.8 | 59.8 | 101
[2] | -5.05 | 5.6 | 99 | 97.7 | 101
[3] | -5.44 | -5.88 | 96.8 | 98 | 99.8
[4] | -0.2 | 19.3 | 57.2 | 46.8 | 103
[5] | -6.87 | 20.7 | 99 | 104 | 109
[6] | -10.3 | 68.8 | 96.9 | 98.4 | 108
[7] | -6.78 | 7.77 | 68.5 | 63.2 | 107
[8] | -22.4 | 10.7 | 76.8 | 76.5 | 107
[9] | -6.84 | 54.4 | 70.9 | 60.5 | 100
[10] | -6.84 | 0.54 | 79.4 | 64 | 108
[11] | -0.02 | -2.73 | 1.92 | 18.8 | 99.3
[12] | 15.5 | 24.8 | 22.1 | 54.6 | 96.9
[13] | -4.17 | -1.65 | 6.09 | 21.6 | 97.1
[14] | -0.27 | -3.72 | 15.8 | 9.91 | 100

Conditions | drug sensitivity score
[15] | 19.8
[16] | 31.2
[17] | 29.6
[18] | 19.3
[19] | 33.8
[20] | 38.4
[21] | 23.1
[22] | 27.8
[23] | 27.6
[24] | 27.5
[25] | 8.55
[26] | 15.5
[27] | 8.79
[28] | 7.17
